In the NIST ThermoML archive (doi:10.1016/j.jct.2004.12.008):
Numbers after ± are expanded uncertainties.

Assay: xn = mol fraction of the nth substance listed
Settings: 101 kPa, Liquid

With `O=[N+]([O-])c1ccccc1` [nitrobenzene] + Cc1ccc(C)cc1 the mass density (293.15 K, x2 = 0) was 1202.95 ± 2.3 kg/m3, the mass density (293.15 K, x2 = 0.0587) was 1179.74 ± 2.1 kg/m3 and the mass density (293.15 K, x2 = 0.1232) was 1154.82 ± 1.9 kg/m3. The mass density (293.15 K, x2 = 0.1933) was 1128.38 ± 1.7 kg/m3, the mass density (293.15 K, x2 = 0.2516) was 1106.86 ± 1.6 kg/m3 and the mass density (293.15 K, x2 = 0.3298) was 1078.63 ± 1.3 kg/m3. It also gave a mass density (293.15 K, x2 = 0.3891) of 1057.67 ± 1.2 kg/m3, a mass density (293.15 K, x2 = 0.4423) of 1039.19 ± 1.1 kg/m3 and a mass density (293.15 K, x2 = 0.4983) of 1020.04 ± 0.91 kg/m3. It also gave a mass density (293.15 K, x2 = 0.5512) of 1002.23 ± 0.78 kg/m3, a mass density (293.15 K, x2 = 0.6242) of 978.08 ± 0.94 kg/m3 and a mass density (293.15 K, x2 = 0.6943) of 955.34 ± 1.1 kg/m3. It also gave a mass density (293.15 K, x2 = 0.7523) of 936.85 ± 1.3 kg/m3, a mass density (293.15 K, x2 = 0.8211) of 915.28 ± 1.5 kg/m3 and a mass density (293.15 K, x2 = 0.8723) of 899.49 ± 1.6 kg/m3. It also gave a mass density (293.15 K, x2 = 0.9421) of 878.29 ± 1.8 kg/m3, a mass density (303.15 K, x2 = 0) of 1193.56 ± 2.2 kg/m3 and a mass density (303.15 K, x2 = 0.0623) of 1168.84 ± 2 kg/m3. The mass density (303.15 K, x2 = 0.1123) was 1149.43 ± 1.9 kg/m3, the mass density (303.15 K, x2 = 0.1823) was 1122.85 ± 1.7 kg/m3 and the mass density (303.15 K, x2 = 0.2429) was 1100.38 ± 1.5 kg/m3. The mass density (303.15 K, x2 = 0.3189) was 1072.84 ± 1.3 kg/m3, the mass density (303.15 K, x2 = 0.3894) was 1047.9 ± 1.1 kg/m3 and the mass density (303.15 K, x2 = 0.4376) was 1031.16 ± 0.99 kg/m3. For the same compound, the mass density (303.15 K, x2 = 0.4889) was 1013.63 ± 0.86 kg/m3, the mass density (303.15 K, x2 = 0.5321) was 999.06 ± 0.76 kg/m3 and the mass density (303.15 K, x2 = 0.6078) was 973.98 ± 0.97 kg/m3. For the same compound, the mass density (303.15 K, x2 = 0.6731) was 952.79 ± 1.1 kg/m3, the mass density (303.15 K, x2 = 0.7561) was 926.4 ± 1.4 kg/m3 and the mass density (303.15 K, x2 = 0.8247) was 905.05 ± 1.6 kg/m3. The mass density (303.15 K, x2 = 0.8871) was 885.97 ± 1.7 kg/m3, the mass density (303.15 K, x2 = 0.9316) was 872.57 ± 1.8 kg/m3 and the mass density (313.15 K, x2 = 0) was 1183.36 ± 2.1 kg/m3. For the same compound, the mass density (313.15 K, x2 = 0.0598) was 1159.6 ± 1.9 kg/m3, the mass density (313.15 K, x2 = 0.1342) was 1130.81 ± 1.7 kg/m3 and the mass density (313.15 K, x2 = 0.1732) was 1116.05 ± 1.6 kg/m3. For the same compound, the mass density (313.15 K, x2 = 0.2311) was 1094.53 ± 1.4 kg/m3, the mass density (313.15 K, x2 = 0.3239) was 1060.94 ± 1.2 kg/m3 and the mass density (313.15 K, x2 = 0.3971) was 1035.18 ± 1 kg/m3. It also gave a mass density (313.15 K, x2 = 0.4576) of 1014.35 ± 0.86 kg/m3, a mass density (313.15 K, x2 = 0.514) of 995.29 ± 0.79 kg/m3 and a mass density (313.15 K, x2 = 0.5672) of 977.61 ± 0.94 kg/m3. For the same compound, the mass density (313.15 K, x2 = 0.6234) was 959.24 ± 1.1 kg/m3, the mass density (313.15 K, x2 = 0.6831) was 940.06 ± 1.2 kg/m3 and the mass density (313.15 K, x2 = 0.7421) was 921.43 ± 1.4 kg/m3. It also gave a mass density (313.15 K, x2 = 0.7901) of 906.5 ± 1.5 kg/m3, a mass density (313.15 K, x2 = 0.8611) of 884.8 ± 1.7 kg/m3 and a mass density (313.15 K, x2 = 0.9287) of 864.54 ± 1.9 kg/m3. The mass density (323.15 K, x2 = 0) was 1172.38 ± 2 kg/m3, the mass density (323.15 K, x2 = 0.048) was 1153.29 ± 1.9 kg/m3 and the mass density (323.15 K, x2 = 0.1243) was 1123.72 ± 1.7 kg/m3. The mass density (323.15 K, x2 = 0.1892) was 1099.28 ± 1.5 kg/m3, the mass density (323.15 K, x2 = 0.2572) was 1074.3 ± 1.3 kg/m3 and the mass density (323.15 K, x2 = 0.3249) was 1050.03 ± 1.1 kg/m3. It also gave a mass density (323.15 K, x2 = 0.4023) of 1022.99 ± 0.91 kg/m3, a mass density (323.15 K, x2 = 0.4683) of 1000.47 ± 0.75 kg/m3 and a mass density (323.15 K, x2 = 0.5138) of 985.24 ± 0.87 kg/m3. For the same compound, the mass density (323.15 K, x2 = 0.5871) was 961.14 ± 1.1 kg/m3, the mass density (323.15 K, x2 = 0.6422) was 943.39 ± 1.2 kg/m3 and the mass density (323.15 K, x2 = 0.7139) was 920.72 ± 1.4 kg/m3. It also gave a mass density (323.15 K, x2 = 0.7811) of 899.92 ± 1.6 kg/m3, a mass density (323.15 K, x2 = 0.8428) of 881.17 ± 1.8 kg/m3 and a mass density (323.15 K, x2 = 0.8781) of 870.6 ± 1.8 kg/m3. The mass density (323.15 K, x2 = 0.9424) was 851.62 ± 2 kg/m3, the mass density (333.15 K, x2 = 0) was 1160.59 ± 1.9 kg/m3 and the mass density (333.15 K, x2 = 0.0668) was 1134.27 ± 1.8 kg/m3. It also gave a mass density (333.15 K, x2 = 0.1235) of 1112.51 ± 1.6 kg/m3, a mass density (333.15 K, x2 = 0.1983) of 1084.57 ± 1.4 kg/m3 and a mass density (333.15 K, x2 = 0.2547) of 1064.03 ± 1.2 kg/m3. It also gave a mass density (333.15 K, x2 = 0.3133) of 1043.14 ± 1.1 kg/m3, a mass density (333.15 K, x2 = 0.3942) of 1015.02 ± 0.84 kg/m3 and a mass density (333.15 K, x2 = 0.4789) of 986.4 ± 0.85 kg/m3. The mass density (333.15 K, x2 = 0.5287) was 969.96 ± 0.99 kg/m3, the mass density (333.15 K, x2 = 0.5902) was 950.01 ± 1.2 kg/m3 and the mass density (333.15 K, x2 = 0.6517) was 930.44 ± 1.3 kg/m3. For the same compound, the mass density (333.15 K, x2 = 0.7244) was 907.78 ± 1.5 kg/m3, the mass density (333.15 K, x2 = 0.7923) was 887.08 ± 1.7 kg/m3 and the mass density (333.15 K, x2 = 0.8321) was 875.13 ± 1.8 kg/m3. It also gave a mass density (333.15 K, x2 = 0.8832) of 860 ± 1.9 kg/m3, a mass density (333.15 K, x2 = 0.9329) of 845.51 ± 2 kg/m3 and a mass density (343.15 K, x2 = 0) of 1147.99 ± 1.9 kg/m3. It also gave a mass density (343.15 K, x2 = 0.0623) of 1123.65 ± 1.7 kg/m3, a mass density (343.15 K, x2 = 0.1324) of 1097.02 ± 1.5 kg/m3 and a mass density (343.15 K, x2 = 0.1824) of 1078.5 ± 1.3 kg/m3. For the same compound, the mass density (343.15 K, x2 = 0.2561) was 1051.86 ± 1.1 kg/m3, the mass density (343.15 K, x2 = 0.3249) was 1027.65 ± 0.93 kg/m3 and the mass density (343.15 K, x2 = 0.3867) was 1006.43 ± 0.77 kg/m3. The mass density (343.15 K, x2 = 0.4562) was 983.11 ± 0.87 kg/m3, the mass density (343.15 K, x2 = 0.5139) was 964.17 ± 1 kg/m3 and the mass density (343.15 K, x2 = 0.5719) was 945.49 ± 1.2 kg/m3. It also gave a mass density (343.15 K, x2 = 0.6317) of 926.6 ± 1.4 kg/m3, a mass density (343.15 K, x2 = 0.691) of 908.21 ± 1.5 kg/m3 and a mass density (343.15 K, x2 = 0.7613) of 886.86 ± 1.7 kg/m3. It also gave a mass density (343.15 K, x2 = 0.8312) of 866.07 ± 1.9 kg/m3, a mass density (343.15 K, x2 = 0.8931) of 848.03 ± 2 kg/m3 and a mass density (343.15 K, x2 = 0.9537) of 830.69 ± 2.2 kg/m3. For the same compound, the mass density (353.15 K, x2 = 0) was 1134.61 ± 1.7 kg/m3, the mass density (353.15 K, x2 = 0.0479) was 1116.05 ± 1.6 kg/m3 and the mass density (353.15 K, x2 = 0.1123) was 1091.72 ± 1.4 kg/m3. It also gave a mass density (353.15 K, x2 = 0.1742) of 1068.95 ± 1.2 kg/m3, a mass density (353.15 K, x2 = 0.2498) of 1041.91 ± 1 kg/m3 and a mass density (353.15 K, x2 = 0.3013) of 1023.94 ± 0.9 kg/m3. For the same compound, the mass density (353.15 K, x2 = 0.3781) was 997.79 ± 0.74 kg/m3, the mass density (353.15 K, x2 = 0.4538) was 972.7 ± 0.95 kg/m3 and the mass density (353.15 K, x2 = 0.5247) was 949.8 ± 1.1 kg/m3. For the same compound, the mass density (353.15 K, x2 = 0.6149) was 921.44 ± 1.4 kg/m3, the mass density (353.15 K, x2 = 0.662) was 906.96 ± 1.5 kg/m3 and the mass density (353.15 K, x2 = 0.7137) was 891.32 ± 1.6 kg/m3. It also gave a mass density (353.15 K, x2 = 0.7832) of 870.68 ± 1.8 kg/m3, a mass density (353.15 K, x2 = 0.8312) of 856.69 ± 1.9 kg/m3 and a mass density (353.15 K, x2 = 0.8813) of 842.3 ± 2.1 kg/m3. It also gave a mass density (353.15 K, x2 = 0.9422) of 825.1 ± 2.2 kg/m3.
